A short description of data set [1]: Stability of angiotensin peptides in binding assay buffer / assay conditions. Type of data set: physicochemical.
For the next data set, the target named is T1, AT1 receptor (Bos taurus, UniProt P25104).
T1 construct: from tissue; host or cells: bovine adrenal cortex membranes
T1 sequence (P25104 1-359): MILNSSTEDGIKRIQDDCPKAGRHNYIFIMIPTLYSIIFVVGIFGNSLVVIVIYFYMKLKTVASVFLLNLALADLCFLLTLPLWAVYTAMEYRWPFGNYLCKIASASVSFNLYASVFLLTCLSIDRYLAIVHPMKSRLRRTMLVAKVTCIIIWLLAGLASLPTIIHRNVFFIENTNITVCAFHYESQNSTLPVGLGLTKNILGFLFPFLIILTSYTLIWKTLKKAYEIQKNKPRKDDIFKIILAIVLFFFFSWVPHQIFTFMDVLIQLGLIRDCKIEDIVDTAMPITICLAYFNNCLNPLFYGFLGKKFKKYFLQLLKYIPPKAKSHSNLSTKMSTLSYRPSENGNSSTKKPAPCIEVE
Type of data set: binding, bovine.

For data set [2] the following is noted: arterial and venous blood in man; cited from earlier work.
Data set [3] concerns the target T2, AT4 receptor (Bos taurus, UniProt F1N1Q8).
T2 sequence (F1N1Q8 1-1022): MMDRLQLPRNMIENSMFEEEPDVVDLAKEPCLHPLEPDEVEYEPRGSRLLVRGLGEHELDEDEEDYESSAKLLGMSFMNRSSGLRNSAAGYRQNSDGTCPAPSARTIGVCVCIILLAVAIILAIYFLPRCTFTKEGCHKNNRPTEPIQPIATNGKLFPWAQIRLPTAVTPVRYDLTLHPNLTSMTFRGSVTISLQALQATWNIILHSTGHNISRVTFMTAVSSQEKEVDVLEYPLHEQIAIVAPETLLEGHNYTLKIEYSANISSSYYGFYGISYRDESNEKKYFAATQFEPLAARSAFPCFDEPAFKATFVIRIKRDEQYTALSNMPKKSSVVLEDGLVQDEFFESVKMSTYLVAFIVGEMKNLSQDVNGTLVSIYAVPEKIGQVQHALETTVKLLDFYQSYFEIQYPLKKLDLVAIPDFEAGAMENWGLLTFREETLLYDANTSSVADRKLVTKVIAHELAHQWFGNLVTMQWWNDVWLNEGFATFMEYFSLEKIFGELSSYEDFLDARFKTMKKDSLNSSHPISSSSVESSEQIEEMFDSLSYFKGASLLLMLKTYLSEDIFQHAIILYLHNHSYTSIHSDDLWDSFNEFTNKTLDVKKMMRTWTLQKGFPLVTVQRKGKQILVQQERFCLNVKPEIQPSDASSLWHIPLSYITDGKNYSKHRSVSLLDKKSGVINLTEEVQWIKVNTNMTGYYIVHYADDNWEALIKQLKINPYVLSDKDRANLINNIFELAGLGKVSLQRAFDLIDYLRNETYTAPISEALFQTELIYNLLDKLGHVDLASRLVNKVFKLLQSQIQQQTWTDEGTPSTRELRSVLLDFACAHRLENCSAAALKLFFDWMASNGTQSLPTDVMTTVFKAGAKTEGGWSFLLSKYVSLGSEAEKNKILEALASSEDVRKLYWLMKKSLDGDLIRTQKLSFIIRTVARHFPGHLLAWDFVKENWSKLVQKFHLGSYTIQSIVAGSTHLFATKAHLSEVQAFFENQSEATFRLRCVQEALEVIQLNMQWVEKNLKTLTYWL
Kind of data set: 125I-AIV binding and competition, bovine adrenal cortical membranes.

Data set [4] has as its target T2, AT4 receptor. Kind of data set: 125I-AIV binding and competition, bovine coronary venular endothelial cell (CVEC) membranes.
A further data set concerns rat kidney. In words: Renal cortical blood flow (laser doppler) after infusion into the renal artery. Type of data set: in vivo.
Data set [5] is classed as in vitro ADME, rat. As to conditions: for metabolic stability, in words: rat kidney membranes / homogenates.
Another data set has as its system rat. In words: Systemic arterial blood pressure during renal artery infusion.
Data set [6] relates to vascular endothelial cells. Kind of data set: EDRF production in vascular endothelial cells. Format: cell-based. The method, then:
Bovine aortic endothelial cells were grown at 37° C. in 35 mm culture plates under 5% CO2 in air in Dulbecco's Modified Eagle's Medium (DMEM) supplemented with 5 μg/ml insulin and 10% (v/v) newborn bovine serum (NBBS). The medium was aspirated 10-12 hours after seeding and replaced with serum-free medium. The medium was again aspirated 10-12 hours later and replaced with either test or control medium. Control medium was DMEM with 5 µg/ml insulin and 2%, 5%, or 10% (v/v) NBBS as indicated. […] The medium was changed every 48 h (i.e., with supportive DMEM medium for the remainder of the experiment).

Data set [7] deals with T2, AT4 receptor. Kind of data set: 125I-AIV binding, bovine aortic endothelial cell (BAEC) membranes. As to conditions: BAEC membranes preincubated 60 min at 22° C.
The next data set has as its target T3, AT1 receptors (Rattus norvegicus, UniProt P25095).
T3 construct: membrane fractions from rat vascular smooth muscle cells (RVSMC); endogenous in cells; host or cells: rat vascular smooth muscle cell line WKY IV, passage #17, membrane preparation
T3 sequence (P25095 1-359): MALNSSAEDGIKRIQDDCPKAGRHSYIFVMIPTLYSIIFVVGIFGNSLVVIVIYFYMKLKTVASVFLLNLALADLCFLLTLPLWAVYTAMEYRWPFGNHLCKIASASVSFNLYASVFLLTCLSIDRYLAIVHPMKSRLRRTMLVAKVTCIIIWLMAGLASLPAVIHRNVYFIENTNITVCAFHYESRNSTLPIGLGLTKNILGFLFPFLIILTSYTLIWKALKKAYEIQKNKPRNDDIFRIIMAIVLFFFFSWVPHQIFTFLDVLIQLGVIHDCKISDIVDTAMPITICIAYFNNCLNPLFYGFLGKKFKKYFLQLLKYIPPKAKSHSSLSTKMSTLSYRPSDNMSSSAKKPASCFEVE
Kind of data set: Effect of GTPγS on 125I-AII binding, rat vascular smooth muscle cell (RVSMC) membranes. To be noted: dose-dependent.

The mark [8] stands for this setting: bovine adrenal cortical AT4 receptor.

Entries after “also recorded” stand apart in the source; their conditions may differ. Where two headings read alike, the source gives them in different places. Non-standard residues stand in square brackets, D forms with d. Residues, ends and D or L forms follow the SMILES beside them. No end group written: not given here. NMeI = CC[C@H](C)[C@H](NC)C(=O)O

Data on eleven compounds can be found in patent publication US6022696A, “Methods of identifying agonists or antagonists of angiotensin IV” (Washington State University Research Foundation, priority 1998, dated 2000).

With “125I-AII: 125I-radiolabeled AII (DRVYIHPF; also: 125I radiolabel; UniProt P01019 25-32, looked up)”, the “overall hydrolysis under conditions of the assay” value in data set [1] (bovine adrenal cortical membrane binding assay) is on record as “less than 2%”.
`CC[C@H](C)[C@H](NC(=O)[C@@H](N)Cc1ccc(O)cc1)C(=O)N[C@@H](Cc1cnc[nH]1)C(=O)N1CCC[C@H]1C(=O)N[C@@H](Cc1ccccc1)C(=O)O` [AII(4-8)] (H-YIHPF-OH): the Ki on AT1 receptor is > 1 µM. Also, the half-life in data set [2] is 2.4 min.
`CC[C@H](C)[C@H](NC(=O)[C@H](Cc1ccc(O)cc1)NC(=O)[C@@H](NC(=O)[C@H](CCCNC(=N)N)NC(=O)[C@@H](N)CC(=O)O)C(C)C)C(=O)N[C@@H](Cc1cnc[nH]1)C(=O)N1CCC[C@H]1C(=O)N[C@@H](Cc1ccccc1)C(=O)O` [AII, Asp1 Arg2 Val3 Tyr4 Ile5 His6 Pro7 Phe8, reference compound]: the half-life in [2] is 4.4 min.
For `CC[C@H](C)[C@H](NC(=O)[C@H](Cc1ccc(O)cc1)NC(=O)[C@@H](NC(=O)[C@@H](N)CCCNC(=N)N)C(C)C)C(=O)N[C@@H](Cc1c[nH]cn1)C(=O)N1CCC[C@H]1C(=O)N[C@@H](Cc1ccccc1)C(=O)O` [AIII, Arg1 Val2 Tyr3 Ile4 His5 Pro6 Phe7, reference compound], the half-life in data set [2] is 2.0 min. The “hydrolysis in binding buffer” value in [1] (4 h at 37° C., reverse phase HPLC) was “less than 10%”. Also, on AT4 receptor [3] (setting [8]), the “decrease in AT4 receptor binding affinity relative to AIV (or stated parent peptide)” value is given as “about 52 fold”. The “increase in Ki over AIV” value at AT4 receptor [4] stood at 20 fold.
Turning to `CC[C@H](C)[C@H](NC(=O)[C@H](Cc1ccc(O)cc1)NC(=O)[C@@H](N)C(C)C)C(=O)N[C@@H](Cc1cnc[nH]1)C(=O)N1CCC[C@H]1C(=O)N[C@@H](Cc1ccccc1)C(=O)O` [AIV, Val1 Tyr2 Ile3 His4 Pro5 Phe6], in the data set with rat kidney (infusion into rat renal artery, 100 pmol/min where stated), the “change in renal cortical blood flow, in words” value is “profound and long-lasting increase in blood flow; also recorded: equally dramatic increase in flow”. Moreover, the “agonist / antagonist activity at the AT4 receptor” value in the data set with rat kidney (judged from renal blood flow response compared with AIV) is reported as “full agonistic activity”. Besides, the “effect of preinfusion on agonist-induced change in renal blood flow” value in the data set with rat kidney (preinfusion before the named agonist) was “completely blocked the constrictive action of AII”. Besides, the half-life in data set [2] is 1.9 min. Also, in [5], the “metabolic stability, in words” value is given as “rapidly degraded”. Further, the “effect on arterial blood pressure” value with rat is “not accompanied by alterations in mean arterial pressure”. Moreover, the “production of endothelial cell relaxing factor (EDRF)” value in data set [6] is recorded as “stimulating production of endothelial cell relaxing factor (EDRF)”.
With `CC[C@H](C)[C@H](NC)C(=O)N[C@@H](Cc1ccc(O)cc1)C(=O)N[C@H](C(=O)N[C@@H](Cc1c[nH]cn1)C(=O)N1CCC[C@H]1C(=O)N[C@@H](Cc1ccccc1)C(=O)O)[C@@H](C)CC` [CH3--I1 YIHPF] (H-[NMeI]YIHPF-OH), the “decrease in AT4 receptor binding affinity relative to AIV (or stated parent peptide)” value on AT4 receptor [3] (setting [8]) turned out to be 67 fold.
Consider `CC[C@H](C)[C@H](NC(=O)[C@H](Cc1ccc(O)cc1)NC(=O)[C@@H](N)CC(=O)O)C(=O)N[C@@H](Cc1c[nH]cn1)C(=O)N1CCC[C@H]1C(=O)N[C@@H](Cc1ccccc1)C(=O)O` [DYIHPF] (H-DYIHPF-OH), for which the Kd at AT4 receptor [3] (read-out: Kd of analog for the AT4 receptor) was > 1000 nM.
As to `Nc1nc2c(ncn2[C@@H]2O[C@H](COP(=O)(O)OP(=O)(O)OP(O)(O)=S)[C@@H](O)[C@H]2O)c(=O)[nH]1` [GTPγS], the “effect on 125I-AIV binding to AT4 receptors” value on AT4 receptor [7] is “no effect; also recorded: did not inhibit (or alter) binding”; at AT4 receptor [3] it was “not altered”. Also, the “effect on 125I-AII binding to AT1 receptors” value on AT1 receptors is “inhibited”.
For the compound `CC(C)[C@H](N)CN[C@@H](Cc1ccc(O)cc1)C(=O)N[C@H](CN[C@@H](Cc1c[nH]cn1)C(=O)N1CCC[C@H]1C(=O)N[C@@H](Cc1ccccc1)C(=O)O)C(C)C` [Val1 Val3 AIV, ^+ H3 N-Val(CH2 NH)Tyr-Val(CH2 NH)-His-Pro-Phe-COO--], the “metabolic stability, in words” value in data set [5] (listed as Val(I)Val(3) AIV) is on record as “totally resistant to enzymatic degradation”; in data set [5] (listed as divalinal AIV) it was “enhanced metabolic stability”. The same compound came in with a peptide remaining intact in [5] (rat kidney membranes, room temperature, after 4 hr of incubation) of 100%. Further, the “effect on arterial blood pressure” value in the data set with rat is listed as “did not alter blood pressure or renal blood flow”.
For CGP42112A [reference compound], the Ki at AT1 receptor (bovine adrenal cortical membranes) is > 100 µM.
“Phe2 Tyr6 AIV: positions of Phe and Tyr reversed, SEQ. ID. NO. 36 (VPIHYF)”: the “AT4 receptor binding affinity, in words” value with AT4 receptor [3] (setting [8]) was “very low binding affinity”.

Broadly, the Ki is the equilibrium dissociation constant of an inhibitor or competing ligand from its target. High values mean weaker binding, low ones tighter binding. Broadly, the half-life is the time in which the quantity being followed falls by half. By Kd is commonly meant the equilibrium constant for the complex coming apart.
